Laboratory results: ChEMBL document CHEMBL5131468, “Systematic comparison of activity and mechanism of antimicrobial peptides against nosocomial pathogens” (Eur J Med Chem, 2022)
Values after ≈ are worked out from the molar mass of the structure shown. Active and inactive are the calls of the source. The calls are words filed in the database; no cut-off is given here. Peptide text beside a SMILES is read from it.

How the values were obtained:
Cell membrane [1] = test: Induction of membrane depolarization in Escherichia coli ATCC 25922 at 0.5 times MIC after 60 mins by DiOC23 dye based based flow cytometry relative to control
Cell membrane [2] = test: Induction of membrane depolarization in Salmonella enterica serovar typhimurium SL1344 at 0.5 times MIC after 60 mins by DiOC23 dye based based flow cytometry relative to control; details: Salmonella enterica subsp. enterica serovar Typhimurium
HEK293 [3] = test: Cytotoxicity against human HEK293 cells assessed as decrease in live cells at 250 ug/ml incubated for 2 hrs by MTS assay; assay type: toxicity, cell-based; details: hek293, 2 h, dose 250 µg/ml
Cell membrane [4] = test: Induction of membrane depolarization in Salmonella enterica serovar typhimurium SL1344 at 0.25 to 0.5 times MIC after 60 mins by DiOC23 dye based based flow cytometry; assay type: subcellular; details: Salmonella enterica subsp. enterica serovar Typhimurium
Cell membrane [5] = test: Induction of outer membrane permeabilization in Salmonella enterica serovar typhimurium SL1344 assessed as increase in NPN fluorescence intensity incubated for 15 mins by NPN-dye based fluorescence analysis; assay type: subcellular; details: Salmonella enterica subsp. enterica serovar Typhimurium
Staphylococcus aureus [6] = test: Antibacterial activity against Staphylococcus aureus ATCC 29213 assessed as inhibition of bacterial growth incubated for 90 mins by serial dilution assay; assay type: functional
Cell membrane [7] = test: Induction of membrane depolarization in Enterococcus faecalis ATCC 29212 at 0.25 times MIC after 60 mins by DiOC23 dye based based flow cytometry; assay type: subcellular
Staphylococcus aureus [8] = test: Antibacterial activity against Methicillin resistant Staphylococcus aureus ATCC 33591 assessed as inhibition of bacterial growth incubated for 90 mins by serial dilution assay; assay type: functional
Staphylococcus aureus [9] = test: Induction of morphological changes in Staphylococcus aureus ATCC 29213 at 0.5 to 2 times MIC incubated for 90 mins by Helium ion microscopy; assay type: functional, organism-based
HEK293 [10] = test: Cytotoxicity against human HEK293 cells assessed as decrease in live cells upto 125 ug/ml incubated for 2 hrs by MTS assay; assay type: toxicity, cell-based; details: hek293, 2 h, dose < 125 µg/ml
Cell membrane [11] = test: Induction of inner membrane damage in Escherichia coli ATCC 25922 assessed disruption of membrane integrity at 0.5 to 256 ug/ml and measured after 90 mins by propidium iodide staining based flow cytometry; assay type: subcellular; details: dose 0.5-256 µg/ml
Staphylococcus aureus [12] = test: Bactericidal activity against Staphylococcus aureus ATCC 29213 incubated for 90 mins by serial dilution assay; assay type: functional
Cell membrane [13] = test: Induction of membrane depolarization in Staphylococcus aureus ATCC 29213 at 0.25 times MIC after 60 mins by DiOC23 dye based based flow cytometry; assay type: subcellular
Enterococcus faecalis [14] = test: Antibacterial activity against Enterococcus faecalis ATCC 29212 assessed as inhibition of bacterial growth incubated for 90 mins by serial dilution assay; assay type: functional
Escherichia coli [15] = test: Bactericidal activity against Escherichia coli BAA3051 incubated for 90 mins by serial dilution assay; assay type: functional
Cell membrane [16] = test: Induction of outer membrane permeabilization in Escherichia coli BAA3051 assessed as increase in NPN fluorescence intensity incubated for 15 mins by NPN-dye based fluorescence analysis
Cell membrane [17] = test: Induction of membrane depolarization in Escherichia coli ATCC 25922 at 0.25 to 0.5 times MIC after 60 mins by DiOC23 dye based based flow cytometry; assay type: subcellular
Cell membrane [18] = test: Induction of membrane depolarization in Enterococcus faecalis ATCC 29212 at 0.5 times MIC after 60 mins by DiOC23 dye based based flow cytometry relative to control
Staphylococcus aureus [19] = test: Bactericidal activity against Methicillin resistant Staphylococcus aureus ATCC 33591 incubated for 90 mins by serial dilution assay; assay type: functional
Cell membrane [20] = test: Induction of membrane depolarization in Staphylococcus aureus ATCC 29213 at 0.5 times MIC after 60 mins by DiOC23 dye based based flow cytometry relative to control; assay type: subcellular
Enterococcus faecalis [21] = test: Bactericidal activity against Enterococcus faecalis ATCC 29212 incubated for 90 mins by serial dilution assay; assay type: functional
Escherichia coli [22] = test: Antibacterial activity against Escherichia coli ATCC 25922 assessed as inhibition of bacterial growth incubated for 90 mins by serial dilution assay; assay type: functional
Cell membrane [23] = test: Induction of outer membrane permeabilization in Escherichia coli ATCC 25922 assessed as increase in NPN fluorescence intensity incubated for 15 mins by NPN-dye based fluorescence analysis; assay type: subcellular
Salmonella typhimurium [24] = test: Antibacterial activity against Salmonella enterica serovar typhimurium SL1344 assessed as inhibition of bacterial growth incubated for 90 mins by serial dilution assay; assay type: functional, Salmonella enterica subsp. enterica serovar Typhimurium
Escherichia coli [25] = test: Bactericidal activity against Escherichia coli ATCC 25922 incubated for 90 mins by serial dilution assay; assay type: functional
Salmonella typhimurium [26] = test: Bactericidal activity against Salmonella enterica serovar typhimurium SL1344 incubated for 90 mins by serial dilution assay; assay type: functional, Salmonella enterica subsp. enterica serovar Typhimurium
Escherichia coli [27] = test: Antibacterial activity against Escherichia coli BAA3051 assessed as inhibition of bacterial growth incubated for 90 mins by serial dilution assay; assay type: functional
Cell membrane [28] = test: Induction of inner membrane damage in Staphylococcus aureus ATCC 29213 assessed disruption of membrane integrity at 0.5 to 256 ug/ml and measured after 90 mins by propidium iodide staining based flow cytometry; assay type: subcellular; details: dose 0.5-256 µg/ml
Escherichia coli [29] = test: Induction of morphological changes in Escherichia coli ATCC 25922 assessed as leakage in intracellular contents at 0.5 times MIC incubated for 90 mins by Helium ion microscopy; assay type: functional, organism-based
Lipid bilayer = test: Induction of membrane disruption in Gram-negative bacterial cell membrane mimic POPE:POPG(7:3) large unilamellar vesicle assessed as carboxyfluorescein leakage by fluorescence analysis
Staphylococcus aureus [30] = test: Induction of morphological changes in Staphylococcus aureus ATCC 29213 incubated for 90 mins by Helium ion microscopy; assay type: functional, organism-based
HEK293 [31] = test: Cytotoxicity against human HEK293 cells assessed as increase in LDH release at 31.25 ug/ml incubated for 2 hrs by LDH assay; assay type: toxicity, cell-based; details: hek293, 2 h, dose 31.25 µg/ml
HEK293 [32] = test: Cytotoxicity against human HEK293 cells assessed as decrease in live cells at 15.6 ug/ml incubated for 2 hrs by MTS assay; assay type: toxicity, cell-based; details: hek293, 2 h, dose 15.6 µg/ml
Escherichia coli [33] = test: Induction of morphological changes in Escherichia coli ATCC 25922 assessed as leakage in intracellular contents at 0.5 to 2 times MIC incubated for 90 mins by Helium ion microscopy; assay type: functional, organism-based
Escherichia coli [34] = test: Induction of morphological changes in Escherichia coli ATCC 25922 assessed as membrane collapse at 0.5 to 2 times MIC incubated for 90 mins by Helium ion microscopy; assay type: functional, organism-based
Escherichia coli [35] = test: Induction of morphological changes in Escherichia coli ATCC 25922 at 0.5 times MIC incubated for 90 mins by Helium ion microscopy; assay type: functional, organism-based
[36] = Salmonella enterica subsp. enterica serovar Typhimurium

## CC[C@H](C)[C@H](NC(=O)[C@H](CO)NC(=O)[C@H](CCCCN)NC(=O)[C@H](Cc1c[nH]c2ccccc12)NC(=O)[C@H](CC(C)C)NC(=O)[C@H](C)N)C(=O)N[C@@H](CC(C)C)C(=O)N[C@@H](CCCCN)C(=O)N[C@@H](CC(N)=O)C(=O)N[C@H](C(=O)NCC(=O)N[C@@H](CCCCN)C(=O)N[C@@H](C)C(=O)N[C@@H](C)C(=O)NCC(=O)N[C@@H](CCCCN)C(=O)N[C@@H](C)C(=O)N[C@H](C(=O)N[C@@H](CC(C)C)C(=O)O)C(C)C)C(C)C (H-ALWKSILKNVGKAAGKAVL-OH)
Cell membrane [1]
  Activity: 40%
Cell membrane [2]
  Activity: 40%
HEK293 [3]
  Activity: Toxic
Cell membrane [4]
  Activity: 30%
Cell membrane [5]
  Activity: Active
Staphylococcus aureus [6]; ATCC 29213, 1.5 h
  MIC: 62.5 mg/L (≈ 31.8 µM)
Cell membrane [7]
  Activity: Active
Staphylococcus aureus [8]; ATCC 33591, 1.5 h
  MIC: > 125 mg/L
Staphylococcus aureus [9]
  Activity: Active
HEK293 [10]
  Activity: Toxic
Cell membrane [11]
  Activity: Active
Staphylococcus aureus [12]; ATCC 29213, 1.5 h
  MBC: > 125 mg/L
Cell membrane [13]
  Activity: Active
Enterococcus faecalis [14]; ATCC 29212, 1.5 h
  MIC: 250 mg/L (≈ 127 µM)
Escherichia coli [15]; BAA3051, 1.5 h
  MBC: 31.3 mg/L (≈ 15.9 µM)
Cell membrane [16]
  Activity: Active
Cell membrane [17]
  Activity: 30%
Cell membrane [18]
  Activity: 40%
Staphylococcus aureus [19]; ATCC 33591, 1.5 h
  MBC: > 250 mg/L
Cell membrane [20]
  Activity: 40%
Enterococcus faecalis [21]; ATCC 29212, 1.5 h
  MBC: 250 mg/L (≈ 127 µM)
Escherichia coli [22]; ATCC 25922, 1.5 h
  MIC: 31.3 mg/L (≈ 15.9 µM)
Cell membrane [23]
  Activity: Active
Salmonella typhimurium [24]; SL1344, 1.5 h
  MIC: 250 mg/L (≈ 127 µM)
Escherichia coli [25]; ATCC 25922, 1.5 h
  MBC: 31.3 mg/L (≈ 15.9 µM)
Salmonella typhimurium [26]; SL1344, 1.5 h
  MBC: 250 mg/L (≈ 127 µM)
Escherichia coli [27]; BAA3051, 1.5 h
  MIC: 31.3 mg/L (≈ 15.9 µM)

## CC[C@H](C)[C@H](NC(=O)[C@H](CCCCN)NC(=O)[C@@H](NC(=O)[C@H](Cc1ccccc1)NC(=O)[C@H](C)NC(=O)[C@H](CCCCN)NC(=O)CNC(=O)[C@H](Cc1ccccc1)NC(=O)[C@H](CCCCN)NC(=O)[C@H](CCCCN)NC(=O)[C@H](C)NC(=O)[C@H](CCCCN)NC(=O)[C@H](CCCCN)NC(=O)[C@H](CC(C)C)NC(=O)[C@H](Cc1ccccc1)NC(=O)[C@@H](N)CCCCN)C(C)C)C(=O)N[C@@H](CC(C)C)C(=O)O (H-KFLKKAKKFGKAFVKIL-OH)
Cell membrane [28]
  Activity: Active
Cell membrane [1]
  Activity: 40%
Cell membrane [2]
  Activity: 40%
Cell membrane [4]
  Activity: 30%
Cell membrane [5]
  Activity: Active
Staphylococcus aureus [6]; ATCC 29213, 1.5 h
  MIC: 15.6 mg/L (≈ 7.82 µM)
Escherichia coli [29]
  Activity: Active
Staphylococcus aureus [8]; ATCC 33591, 1.5 h
  MIC: > 125 mg/L
Staphylococcus aureus [9]
  Activity: Active
Lipid bilayer
  Activity: 20%
Staphylococcus aureus [30]
  Activity: Active
HEK293 [31]
  Activity: Toxic
Cell membrane [11]
  Activity: Active
Staphylococcus aureus [12]; ATCC 29213, 1.5 h
  MBC: 31.3 mg/L (≈ 15.7 µM)
HEK293 [32]
  Activity: Toxic
Enterococcus faecalis [14]; ATCC 29212, 1.5 h
  MIC: 31.3 mg/L (≈ 15.7 µM)
Escherichia coli [15]; BAA3051, 1.5 h
  MBC: 7.8 mg/L (≈ 3.91 µM)
Cell membrane [16]
  Activity: Active
Cell membrane [17]
  Activity: 30%
Cell membrane [18]
  Activity: 40%
Staphylococcus aureus [19]; ATCC 33591, 1.5 h
  MBC: > 125 mg/L
Cell membrane [20]
  Activity: 40%
Enterococcus faecalis [21]; ATCC 29212, 1.5 h
  MBC: 125 mg/L (≈ 62.7 µM)
Escherichia coli [33]
  Activity: Active
Escherichia coli [22]; ATCC 25922, 1.5 h
  MIC: 15.6 mg/L (≈ 7.82 µM)
Cell membrane [23]
  Activity: Active
Escherichia coli [34]
  Activity: Active
Salmonella typhimurium [24]; SL1344, 1.5 h
  MIC: 7.8 mg/L (≈ 3.91 µM)
Escherichia coli [25]; ATCC 25922, 1.5 h
  MBC: 15.6 mg/L (≈ 7.82 µM)
Escherichia coli [35]
  Activity: Active
Salmonella typhimurium [26]; SL1344, 1.5 h
  MBC: 7.8 mg/L (≈ 3.91 µM)
Escherichia coli [27]; BAA3051, 1.5 h
  MIC: 7.8 mg/L (≈ 3.91 µM)

## GENTAMICIN
Staphylococcus aureus [6]
  MIC: 3.9 mg/L
Staphylococcus aureus [8]
  MIC: 7.8 mg/L
Staphylococcus aureus [12]
  MBC: 6.25 mg/L
Enterococcus faecalis [14]
  MIC: 3.9 mg/L
Escherichia coli [15]
  MBC: 1.9 mg/L
Staphylococcus aureus [19]
  MBC: 62.5 mg/L
Enterococcus faecalis [21]
  MBC: 31.3 mg/L
Escherichia coli [22]
  MIC: 0.9 mg/L
Salmonella typhimurium [24]; [36]
  MIC: 12.5 mg/L
Escherichia coli [25]
  MBC: 6.25 mg/L
Salmonella typhimurium [26]; [36]
  MBC: 12.5 mg/L
Escherichia coli [27]
  MIC: 1.9 mg/L
